Test system: DAOY-SLCs
Experiment: Western Blot of H3K27me3 and PCNA in DAOY-SLCs
Format: cell-based
Conditions: 5 μM, 48 h
Protocol: To evaluate cell viability cells were plated at a density of 5×10^3 cells/well in 96-well plates and were incubated with MTS solution (CellTiter 96® AQueous One Solution Promega).
Western blots were performed according to standard procedures. Briefly, protein lysates were prepared using RIPA buffer with fresh protease inhibitors. Lysates were separated on SDS polyacrylamide gels. Proteins were transferred on nitrocellulose membrane (0.45 micron) (PerkinElmer). Membranes were blocked for 1 h at room temperature in 5% nonfat dry milk and incubated overnight at 4°C with antibodies against EZH2 (4905S Cell signaling), H3K27me3 (07-449 Millipore), PCNA (2586 Cell signaling), ACTIN (I-19 sc-1616; Santa Cruz Biotechnology), GAPDH (ab9484, Abcam), cleaved CSP-3 (D-175 9661S; Cell Signaling) and H3 (ab1971, Abcam). HRP-conjugated secondary antibodies (Santa Cruz Biotechnology) were used in combination with enhanced chemiluminescence (ECL Amersham).

Structure (SMILES): Cc1cc(C)c(CNC(=O)c2cnn(-c3ccccc3)c2C)c(=O)[nH]1 [MC3629, N-((4,6-dimethyl-2-oxo-1,2-dihydropyridin-3-yl)methyl)-5-methyl-1-phenyl-1H-pyrazole-4-carboxamide]
- H3K27me3 and PCNA levels: down modulated

From paper PMC5620277, “The histone methyltransferase EZH2 as a druggable target in SHH medulloblastoma cancer stem cells” (Oncotarget, 2017)
